Source: US6831075B2, “Heterocyclic substituted pyrazolones” (Cephalon, Inc., priority 1999, dated 2004)

Experiments:
Type in all cases: biochemical
[1] = target: T1, recombinant human baculoviral VEGFR2 cyctoplasmic domain (Homo sapiens, UniProt P35968); test: VEGFR2 kinase inhibition assay (ELISA-based, time-resolved fluorescence); settings: 1 uM compound, 30 μM ATP; for inhibition at 1 µM: read-out: VEGFR-2 kinase % inhibition @ 1 uM
T1 construct: recombinant human baculoviral VEGFR2 cyctoplasmic domain; host or cells: baculovirus expression system
Experimental: Inhibition of Vascular Endothelial Growth Factor Receptor-2 Kinase Activity
Assay were performed as described for trkA kinase below. The 96-well microtiter plate (FluoroNUNC Maxisorp) was coated with 40 μg/ml recombinant human phospholipase C-γ1/glutathione S-transferase fusion protein. Inhibition studies were performed in 100 μl assay mixtures containing 50 mM HEPES, pH 7.4, 30 μM ATP, 10 mM MnCl2, 0.1% BSA, 2% DMSO, and 1 μM of test compound. The reaction was initiated by adding prephosphorylated recombinant human baculoviral VEGFR2 cyctoplasmic domain. The reaction was allowed to proceed for 15 minutes at 37° C. The detection antibody, eurpium-labeled anti-phosphotyrosine antibody (Wallac #CR04-100), was added at 1:5000 dilution in block buffer (3% BSA in TBST).

[2] = target: T2, baculoviral GST-MLK3KD (Homo sapiens, UniProt Q16584); test: Mixed Lineage Kinase-3 inhibition assay (Millipore Multiscreen plate, 32P); settings: 1 uM compound, 100 μM ATP; for inhibition at 1 µM: read-out: MLK-3 Kinase % inhibition @ 1 uM
T2 construct: 2 μg/ml of baculoviral GST-MLK3KD; GST (N); host or cells: baculovirus expression system
Experimental: Inhibition of Mixed Lineage Kinase-3 Activity
Assays were performed using the Millipore Multiscreen plate format as described for MLK1. Briefly, each 50-μl assay mixture contained 20 mM Hepes, pH 7, 1 mM EGTA, 10 mM MgCl2, 1 mM DTT, 25 mM β-glycerophosphate, 100 μM ATP, 0.25 μCi [γ-^32P]ATP, 0.1% BSA, 500 μg/ml myelin basic protein (UBI #13-104), 2% DMSO, various concentrations of test compound, and 2 μg/ml of baculoviral GST-MLK3KD. Samples were incubated for 15 min at 37° C. The reaction was stopped by adding ice cold 50% TCA and the proteins were allowed to precipitate for 30 min at 4° C. The plates were then washed with ice cold 25% TCA. Supermix scintillation cocktail was added, and the plates were allowed to equilibrate for 1-2 hours prior to counting.

[3] = target: T3, recombinant human baculovirus-expressed VEGFR1 cytoplasmic domain (Homo sapiens, UniProt P17948); test: VEGFR1 kinase inhibition assay (ELISA-based, time-resolved fluorescence); settings: 1 uM compound, 30 μM ATP; for inhibition at 1 µM: read-out: VEGFR-1 kinase % inhibition @ 1 uM
T3 construct: recombinant human baculovirus-expressed VEGFR1 cytoplasmic domain; host or cells: baculovirus expression system
T3 sequence (P17948 781-1338 limits assumed): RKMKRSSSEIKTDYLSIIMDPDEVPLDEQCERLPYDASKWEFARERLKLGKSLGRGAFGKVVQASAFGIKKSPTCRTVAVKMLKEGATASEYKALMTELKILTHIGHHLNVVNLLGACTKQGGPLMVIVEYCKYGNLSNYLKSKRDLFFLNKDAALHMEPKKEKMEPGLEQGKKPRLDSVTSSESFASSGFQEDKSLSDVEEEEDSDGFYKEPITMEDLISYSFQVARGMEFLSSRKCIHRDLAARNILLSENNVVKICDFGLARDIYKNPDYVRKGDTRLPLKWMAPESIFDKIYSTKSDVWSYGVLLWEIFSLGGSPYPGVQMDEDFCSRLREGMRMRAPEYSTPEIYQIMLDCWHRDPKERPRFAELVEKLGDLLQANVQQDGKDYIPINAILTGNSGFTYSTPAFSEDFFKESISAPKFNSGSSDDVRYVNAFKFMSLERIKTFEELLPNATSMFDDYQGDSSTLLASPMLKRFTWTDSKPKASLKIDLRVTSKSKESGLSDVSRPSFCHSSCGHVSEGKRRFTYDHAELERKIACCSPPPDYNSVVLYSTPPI
Experimental: Inhibition of Vascular Endothelial Growth Factor Receptor-1 Kinase Activity
The VEGFR1 kinase activity assay utilizes an ELISA-based format in a 96-well FluoroNUNC Maxisorp plate with a time-resolved fluorescence readout. The plate was coated with 100 μl/well of substrate solution (recombinant human PLC-γ/GST) at a concentration of 40 μg/ml in Tris buffered saline (TBS). The VEGFR1 activity was assayed in 100-μl assay micture containing 50 mM HEPES (pH 7.4), 30 μM ATP, 10 mM MnCl2, 0.1% BSA, 2% DMSO, and 300 ng/ml prephosphorylated recombinant human baculovirus-expressed VEGFR1 cytoplasmic domain. Compounds were screened for inhibition of the VEGFR1 kinase activity at a concentration of 1 μM. The kinase reaction was allowed to proceed at 37° C. for 15 minutes. The detection antibody, europium-labeled anti-phosphotyrosine antibody (Wallac #CR04-100), was added at 1:5000 dilution in block buffer (3% BSA in TBST). After a 1-hour incubation at 37° C., 100 μl of enhancement solution (Wallac #1244-105) was added and the plate was gently agitated. After 5 min, the fluorescence of the resulting solution was measured using the BMG Fluostar (Model # 403).

[4] = target: T4, recombinant human baculovirus-expressed FGFR1 cytoplasmic domain (Homo sapiens, UniProt P11362); test: FGFR1 kinase inhibition assay (ELISA-based, time-resolved fluorescence); settings: 1 uM compound; 20 μM ATP
T4 construct: recombinant human baculovirus-expressed FGFR1 cytoplasmic domain; host or cells: baculovirus expression system
Experimental: Inhibition of Fibroblast Growth Factor Receptor-1 (FGFR1) Kinase Activity
The FGFR1 kinase activity was measured using an ELISA-based format in a 96-well FluoroNUNC Maxisorp plate with a time-resolved fluorescence readout as described for trkA kinase. The plate was coated with 100 μl/well of substrate solution (recombinant human PLC-γ/GST) at a concentration of 10 μg/ml in Tris buffered saline (TBS). The FDGFR1 activity was assayed in 100-μl assay micture containing 50 mM HEPES (pH 7.4), 20 μM ATP, 10 mM MnCl2, 0.1% BSA, 2% DMSO, and 15 ng/ml recombinant human baculovirus-expressed FGFR1 cytoplasmic domain (prephosphorylated prior to use). Compounds were screened for inhibition of the FGFR1 kinase activity at a conentration of 1 μM. The kinase reaction was allowed to proceed at 37° C. for 15 minutes. The detection antibody, europium-labeled anti-phosphotyrosine antibody (Wallace #CR04-100), was added at 1:5000 dilution in block buffer (3% BSA in TBST). After a 1-hour incubation at 37° C., 100 μl of enhancement solution (Wallac #1244-105) and the plate was gently agitated. After 5 min, the fluorescence of the resulting solutions measured using the BMG Fluostar (Model # 403).

T4 sequence (P11362 398-822 limits assumed): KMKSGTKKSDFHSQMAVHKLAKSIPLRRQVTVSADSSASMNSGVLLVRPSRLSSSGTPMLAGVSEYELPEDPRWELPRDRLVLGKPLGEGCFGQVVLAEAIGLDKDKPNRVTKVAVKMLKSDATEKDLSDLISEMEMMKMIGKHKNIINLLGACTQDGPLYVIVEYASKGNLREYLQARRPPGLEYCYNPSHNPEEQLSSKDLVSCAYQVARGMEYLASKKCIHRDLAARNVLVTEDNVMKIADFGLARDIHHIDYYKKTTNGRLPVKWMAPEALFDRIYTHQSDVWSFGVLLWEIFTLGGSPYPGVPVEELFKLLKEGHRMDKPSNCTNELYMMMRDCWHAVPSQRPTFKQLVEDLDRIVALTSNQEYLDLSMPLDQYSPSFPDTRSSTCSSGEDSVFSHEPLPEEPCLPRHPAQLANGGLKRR
T2 sequence (Q16584 117-379 limits assumed): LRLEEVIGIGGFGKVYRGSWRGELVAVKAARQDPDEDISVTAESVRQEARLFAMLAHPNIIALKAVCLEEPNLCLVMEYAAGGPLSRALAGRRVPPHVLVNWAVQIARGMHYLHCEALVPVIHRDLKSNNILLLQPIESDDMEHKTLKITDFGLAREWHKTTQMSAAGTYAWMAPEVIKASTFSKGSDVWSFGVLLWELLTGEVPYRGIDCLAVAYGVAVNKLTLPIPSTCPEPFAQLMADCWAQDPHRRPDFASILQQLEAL
T1 sequence (P35968 786-1356 limits assumed): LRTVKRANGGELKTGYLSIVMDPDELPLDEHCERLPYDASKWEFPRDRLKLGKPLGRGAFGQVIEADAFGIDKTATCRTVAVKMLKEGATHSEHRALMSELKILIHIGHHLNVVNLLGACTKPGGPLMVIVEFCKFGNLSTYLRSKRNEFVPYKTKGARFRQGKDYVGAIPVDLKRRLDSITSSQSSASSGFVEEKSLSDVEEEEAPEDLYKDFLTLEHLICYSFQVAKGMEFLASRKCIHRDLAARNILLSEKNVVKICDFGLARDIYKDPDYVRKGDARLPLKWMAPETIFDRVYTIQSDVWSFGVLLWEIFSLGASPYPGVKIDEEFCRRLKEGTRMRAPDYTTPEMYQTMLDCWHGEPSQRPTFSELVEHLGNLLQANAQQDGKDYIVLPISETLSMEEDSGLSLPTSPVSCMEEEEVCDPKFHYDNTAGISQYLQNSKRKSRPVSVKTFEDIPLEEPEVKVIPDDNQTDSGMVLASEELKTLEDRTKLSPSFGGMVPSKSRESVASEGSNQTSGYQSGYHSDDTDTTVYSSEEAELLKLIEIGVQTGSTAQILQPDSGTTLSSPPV

Row | SMILES | VEGFR-2 kinase % inhibition @ 1 uM [1] | MLK-3 Kinase % inhibition @ 1 uM [2] | VEGFR-1 kinase % inhibition @ 1 uM [3] | FGFR1 % inhibition @ 1 uM [4] | inhibition at 1 µM [1] | inhibition at 1 µM [2] | inhibition at 1 µM [3] | inhibition at 1 µM [4]
1 | O=C1NN=C(c2ccco2)C1=Cc1cn(Cc2ccccc2)c2ccccc12 [Compound 69] | 5% | 9% | 5% | 30% |  |  |  | 
2 | Cn1ccc(C2=NNC(=O)C2=Cc2c[nH]c3ccc(F)cc23)c1 [Compound 32] | 47% | 42% | 48% | 4% |  |  |  | 
3 | O=C1NN=C(c2ccoc2)C1=Cc1cn(Cc2ccccc2)c2ccccc12 [Compound 68] | 26% | 20% | 11% | 27% |  |  |  | 
4 | O=C1NN=C(c2nccs2)C1=Cc1cn(CCOCc2ccccc2)c2ccccc12 [Compound 72] | 3% | 28% | 12% | 29% |  |  |  | 
5 | Cc1cc(C)c(C=C2C(=O)NN=C2c2cc3ccccc3o2)[nH]1 [Compound 57, 3-benzo[d]furan-2-yl-4-[(3,5-dimethylpyrrol-2-yl)methylene]-2-pyrazolin-5-one] |  |  |  |  | 30% | 67% | 7% | -2%
6 | Cc1cc(C)c(C=C2C(=O)NN=C2c2c(C)coc2C)[nH]1 [Compound 27] | 40% | 44% | 11% | 36% |  |  |  | 
7 | COC(=O)c1ccc2c(C=C3C(=O)NN=C3c3ccco3)c[nH]c2c1 [Compound 50] | 44% | 15% | 31% | 20% |  |  |  | 
8 | COC(=O)c1ccc2[nH]cc(C=C3C(=O)NN=C3c3ccoc3)c2c1 [Compound 16] | 34% | 12% | 18% | 1% |  |  |  | 
9 | Cc1cc(C)c(C=C2C(=O)NN=C2c2ccsc2)[nH]1 [Compound 37, 4-[(3,5-dimethylpyrrol-2-yl)methylene]-3-(3-thienyl)-2-pyrazolin-5-one] |  |  |  |  | 62% | 79% | 14% | 32%
10 | Cc1cc(C)c(C=C2C(=O)NN=C2c2ccccn2)[nH]1 [Compound 30] | 68% | 46% | 41% | 27% |  |  |  | 
11 | Cn1ccc(C2=NNC(=O)C2=Cc2c[nH]c3ccccc23)c1 [Compound 24] | 32% | 38% | 39% | 39% |  |  |  | 
12 | Cn1cc(C=C2C(=O)NN=C2c2ccoc2)c2ccccc21 [Compound 20] | 67% | 57% | 45% | 27% |  |  |  | 
13 | Cc1cc(C)c(C=C2C(=O)NN=C2c2ccncc2)[nH]1 [Compound 3] | 39% | 12% | 22% | 29% |  |  |  | 
14 | O=C1NN=C(c2cccs2)C1=Cc1c[nH]c2ccccc12 [Compound 62] | 52% | 45% | 38% | 37% |  |  |  | 
15 | CN(C)c1ccc(C=C2C(=O)NN=C2c2ccco2)cc1 [Compound 52] | 19% | 19% | 0% | 10% |  |  |  | 
16 | O=C1NN=C(c2ccoc2)C1=Cc1ncc[nH]1 [Compound 15] | 11% | −17% | 12% | 10% |  |  |  | 
17 | O=C1NN=C(c2ccoc2)C1=CC=C(c1ccccc1)c1ccccc1 [Compound 4] | 33% | −6% | 20% | 20% |  |  |  | 
18 | CCc1c(C=C2C(=O)NN=C2c2ccoc2)[nH]c(C(=O)OCc2ccccc2)c1C [Compound 5] | −5% | −9% | 10% | −2% |  |  |  | 
19 | O=C1NN=C(c2nccs2)C1=Cc1cn(Cc2ccccc2)c2ccccc12 [Compound 70] | 51% | 15% | 1% | 21% |  |  |  | 
